According to patent US20230405156A1, “METHODS OF DIAGNOSING AND PROGNOSING CANCERS OF THE HEAD AND NECK” (priority 2021, published 2023):

Experiments:
SSTR = details: five patients with primary EBV-positive NPC; cited from earlier work
[1] = test system: SSTR2 expression in C666-1 cells; experiment: SSTR2 expression in C666-1 cells under pathway inhibitors; type: cell-based
[2] = test system: LMP1-induced SSTR2 expression in NP69 cells; experiment: LMP1-induced SSTR2 expression in NP69 cells under pathway inhibitors; type: cell-based, human; details: NP69 cells expressing LMP1
Text: FIGS. 2A-2K. EBV infection is associated with SSTR2 upregulation in NPC—in vitro experiments and external validation dataset. a Immunofluorescence analysis of EBNA1 (red) and SSTR2 (green) expression in two representative examples of cultured primary respiratory epithelial cells before and after infection with the epitheliotropic M81 EBV strain. Nuclei are counterstained with DAPI (blue); Replication (n=5). b Percentages of cells positive for EBNA1 or co-expression of SSTR2 and EBNA1 c LMP1 induces SSTR2 expression in NP69, an immortalized normal nasopharyngeal epithelial cell line (relative quantities of SSTR2 were calculated using the comparative threshold cycle method and normalized using human beta-actin as endogenous control. Data is presented as a ratio relative to vector control). d LMP1-mediated SSTR2 induction in NP69 cells is inhibited by ectopic expression of TRAF3, a negative regulator of NF-κB. e In NP69 cells, LMP1-induced SSTR2 expression is suppressed by the NF-κB inhibitor BAY 11-7085 and MEK inhibitor U0126. f Both CTAR1 and CTAR2 regions of LMP1 (FIG. 6) are essential for LMP1-mediated SSTR2 induction. […] The color of the samples is based on unsupervised hierarchical clustering. […] Middle panel, Microarray SSTR2 expression is positively correlated with viral LMP1 expression (W=129, p=0.041, Wilcoxon two-sided test). […]

NPC43 cells = experiment: MTT-based cell viability assay (in vitro proliferation/survival); details: 7 days, dilutions starting from 10 μM
Method: (§1) Culture of the cell lines. C666-1 cells were cultured in RPMI-1640 with 25 mM Hepes (Lonza, Berlin, Germany) supplemented with 10% heat-inactivated FCS (Gibco, Carlsbad, CA), 2 mM L-Glutamine, 100 units/ml penicillin (Gibco), and 0.1 mg/ml streptomycin (Gibco). Cells were maintained at 37° C., 5% CO2 and passaged every 7 days at a 1:2 ratio using accutase (Sigma, St. Louis, MO, USA). Seventy-five percent of culture medium was replaced by fresh medium every 2-3 days. NPC43 and C17 cell lines were cultured in RPMI-1640 with 25 mM Hepes (Lonza, Berlin, Germany) supplemented with 10% heat-inactivated FCS (Gibco, Carlsbad, CA), 2 mM L-Glutamine, 100 units/ml penicillin (Gibco) and 0.1 mg/ml streptomycin (Gibco) and 4 μM Y27632 (Promocell, Heidelberg, Germany). Cells were maintained at 37° C., 5% CO2 and passaged 5 days at a 1:4 ratio using accutase (Sigma, St. Louis, MO, USA). Culture medium was replaced by fresh medium every 2 to 3 days.
(§2) MTT-based cell viability assay. Two days prior addition of test compounds, NPC cells were plated at a density of 2×10^4 cells/well in 96-well plates. Compounds were prepared as advised by manufacturers, diluted half logarithmic in medium and added to the wells in quadruplicate starting from 10 μM (30 μM for cisplatin). PEN-211 containing medium was removed after 2 h, cells were washed with PBS and fresh medium was added. Plates were incubated in a humified chamber for 7 days; 50% of medium were exchanged every other day with fresh drug dilutions. MTT (3-[4,5-dimethylthiazol-2-yl]-2,5 diphenyl tetrazolium bromide) reagent (20 μl/well of 5 mg/ml solution) (Sigma-Aldrich) was added and solubilized after 4 h using 100 μl of a […] SDS/0.01M HCl solution. Dual absorbance was measured after 5 h in a microplate reader (Epoch BioTek, BioTek Instruments, Bad Friedrichshall, Germany) using 550 nm as measurement and 655 nm as reference filter. After subtraction of background absorbance, fractions of surviving cells were obtained by normalization to the mean of nontreated samples.

C666-1 cells [3] = experiment: as above; details: 7 days, dilutions starting from 10 μM
Method: as §1, §2

C666-1 cells [4] = experiment: RNA-seq analysis of C666-1 cells treated with SSTR2-targeted drugs; type: cell-based; details: for cell senescence pathways (geneset enrichment) / pathways related to somatostatin biology such as interleukin signaling (geneset enrichment) / cell death/apoptotic pathways (geneset enrichment): 24 h post-treatment; for cell death/apoptotic pathways (geneset enrichment): lanreotide or octreotide; for SSTR2 expression (RNA-seq): lanreotide or octreotide treatment
Method: RNA-seq analysis. C666-1 cells were seeded at a density of 1×10^6/well in six-well plates 2 days prior to compound addition. […] Untreated and DMSO-treated (1:2000 in medium) wells were used as controls. 24 and 72 h post-PEN-221 addition, DNA and RNA extraction was performed from separate wells using Quick-DNA Plus and Direct-zol RNA Plus Kit (Zymo Research, Irvine, CA, USA) according to the manufacturers' instructions.
RNA concentration was normalized to 100 ng/50 μl and Illumina libraries prepared using a NEBNext Poly(A) mRNA Magnetic Isolation Module in conjunction with a NEBNext Ultra II Directional RNA Library Prep Kit (New England Biolabs), according to the manufacturer's instructions using adapters diluted 1:50. Libraries were quantitated using the Agilent High Sensitivity D1000 ScreenTape System on a 2200 Tapestation (Agilent), pooled at equimolar concentration, denatured and sequenced on a NextSeq 500 (Illumina). RNA sequencing transcript abundance was estimated from fastq files using the reference-free quantification tool salmon with the gencode GRCh37 transcript annotation. Differential expression analysis was performed using DESeq237 with treatment, time and batch (where applicable) as covariates. Geneset enrichment analysis was performed using the GSEA function from clusterProfiler, with the reactome database pathways on the gene DESeq2 Wald statistics and a minimum and maximum pathway size of 25 and 500, respectively.

| SMILES | tumor uptake (SSTR) | SSTR2 expression [1] | LMP1-induced SSTR2 expression [2] | in vitro proliferation (NPC43 cells) | in vitro proliferation (C666-1 cells [3]) | cell senescence pathways (geneset enrichment) (C666-1 cells [4]) | pathways related to somatostatin biology such as interleukin signaling (geneset enrichment) (C666-1 cells [4]) | cell death/apoptotic pathways (geneset enrichment) (C666-1 cells [4]) | cell senescence pathways (geneset enrichment) (C666-1 cells [4]; listed as Lanreotide) | SSTR2 expression (RNA-seq) (C666-1 cells [4]) |
| --- | --- | --- | --- | --- | --- | --- | --- | --- | --- | --- |
| C[C@@H](O)[C@@H]1NC(=O)[C@H](CCCCN)NC(=O)[C@@H](Cc2c[nH]c3ccccc23)NC(=O)[C@H](Cc2ccc(O)cc2)NC(=O)[C@@H](NC(=O)[C@@H](Cc2ccccc2)NC(=O)CN2CCN(CC(=O)[O-])CCN(CC(=O)[O-])CCN(CC(=O)[O-])CC2)CSSC[C@@H](C(=O)N[C@H](CO)[C@@H](C)O)NC1=O.[68Ga+3] [68Ga-DOTA-(Tyr3)-octreotide, ^68Ga-labeled 1,4,7,10-tetraazacyclododecane-N,N9,N99,N999 tetraacetic acid-D-Phe1-Tyr3-octreotide (DOTA-TOC)] | increased uptake | – | – | – | – | – | – | – | – | – |
| CC(C)(C)c1ccc(S(=O)(=O)/C=C/C#N)cc1 [BAY 11-7085] | – | suppressed | suppressed | – | – | – | – | – | – | – |
| N#CC(=C(/N)Sc1ccccc1N)/C(C#N)=C(\N)Sc1ccccc1N [U0126] | – | suppressed | suppressed | – | – | – | – | – | – | – |
| CC(C)[C@@H]1NC(=O)[C@H](CCCCN)NC(=O)[C@@H](Cc2c[nH]c3ccccc23)NC(=O)[C@H](Cc2ccc(O)cc2)NC(=O)[C@@H](NC(=O)[C@H](N)Cc2ccc3ccccc3c2)CSSC[C@@H](C(=O)N[C@H](C(N)=O)[C@@H](C)O)NC1=O [lanreotide] | – | – | – | did not affect in vitro proliferation | did not affect in vitro proliferation | upregulation of senescence pathways | induced upregulation | no changes | upregulation of cell senescence pathways | did not affect SSTR2 expression |
| C[C@@H](O)[C@@H]1NC(=O)[C@H](CCCCN)NC(=O)[C@@H](Cc2c[nH]c3ccccc23)NC(=O)[C@H](Cc2ccccc2)NC(=O)[C@@H](NC(=O)[C@H](N)Cc2ccccc2)CSSC[C@@H](C(=O)N[C@H](CO)[C@@H](C)O)NC1=O [octreotide] | – | – | – | did not affect in vitro proliferation | did not affect in vitro proliferation | upregulation of cell senescence pathways | induced upregulation | no changes | – | did not affect SSTR2 expression |
